Measurements published in ChEMBL document CHEMBL5241055, “Angel or Devil ? - CDK8 as the new drug target” (Eur J Med Chem, 2021).

Columns and labels:
Heat shock protein HSP90 = Heat shock protein HSP90 (Homo sapiens, UniProt P07900+P08238); assay: Inhibition of HSP90 (unknown origin); format: protein assay
CDK8/Cyclin C = CDK8/Cyclin C (Homo sapiens, UniProt P49336); assay: Inhibition of CDK8/Cyclin C (unknown origin) using RBER-IRStide as substrate by radiometric assay; format: protein-complex assay
[1] = Antiproliferative activity against HUVEC cells assessed as inhibition of cell growth; format: toxicity, cell-based; details: human
[2] = molecular target: T1, Cyclin-dependent kinase 8 (Homo sapiens, UniProt P49336); assay: Inhibition of CDK8 (unknown origin)
HCT-116 = assay: Anticancer activity against human HCT-116 cells assessed as inhibition of cell growth by SRB assay; format: functional, cell-based
[3] = molecular target: T1, Cyclin-dependent kinase 8; assay: Binding affinity to CDK8 (unknown origin)

CDK8/Cyclin C, sequence (P49336 whole entry): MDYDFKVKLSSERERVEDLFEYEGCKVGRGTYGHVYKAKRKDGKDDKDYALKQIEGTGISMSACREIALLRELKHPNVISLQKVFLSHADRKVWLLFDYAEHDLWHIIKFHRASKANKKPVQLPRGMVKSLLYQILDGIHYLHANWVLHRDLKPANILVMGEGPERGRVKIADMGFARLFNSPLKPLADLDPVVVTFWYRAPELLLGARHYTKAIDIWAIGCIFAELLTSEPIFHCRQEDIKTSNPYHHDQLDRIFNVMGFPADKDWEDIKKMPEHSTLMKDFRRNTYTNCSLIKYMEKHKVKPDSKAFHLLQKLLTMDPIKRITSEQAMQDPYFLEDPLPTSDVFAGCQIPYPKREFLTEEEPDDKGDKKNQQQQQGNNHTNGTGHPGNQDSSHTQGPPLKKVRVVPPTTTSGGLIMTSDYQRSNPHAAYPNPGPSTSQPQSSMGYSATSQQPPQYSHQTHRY
CDK8/Cyclin C, sequence (P24863 whole entry, further chain): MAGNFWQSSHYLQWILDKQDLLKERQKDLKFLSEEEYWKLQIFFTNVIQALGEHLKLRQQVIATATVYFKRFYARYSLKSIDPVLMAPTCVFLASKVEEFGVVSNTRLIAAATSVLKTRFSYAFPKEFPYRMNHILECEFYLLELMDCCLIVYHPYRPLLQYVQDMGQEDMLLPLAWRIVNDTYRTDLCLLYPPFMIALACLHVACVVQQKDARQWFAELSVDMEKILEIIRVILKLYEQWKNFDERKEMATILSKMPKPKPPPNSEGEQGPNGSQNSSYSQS
T1 sequence (P49336 whole entry): as the sequence (P49336 whole entry) above

Compound | IC50 [1] [nM] | also measured
CNC(=O)c1ccc2[nH]nc(Cc3ccc4c(cnn4C)c3)c2c1 |  | IC50 (Heat shock protein HSP90): > 10000 nM
N#Cc1ccc2ncnc(NCCc3ccccc3)c2c1 |  | IC50 (CDK8/Cyclin C): 640 nM
CCCNc1ncnc2ccc(Br)cc12 |  | IC50 (CDK8/Cyclin C): 6100 nM
Cc1cnccc1/C=C/[C@@H](C)[C@H]1CC[C@@H]2[C@]1(C)CCC1=CC3=CC[C@@H](N(C)C)C[C@]34CC[C@@]12O4 | 800 | 
CN(C)[C@@H]1C=CC2=CC3=CC[C@]4(C)[C@@H](c5ccc6ccncc6c5)CC[C@H]4[C@@]34CC[C@]2(C1)O4 | 8 | 
CC1CN(C)CCC1CCC(C)[C@H]1CC[C@@H]2[C@]1(C)CC=C1C=C3C=C[C@@H](N(C)C)C[C@]34CC[C@@]12O4 (stereo partly specified) | 1900 | 
Cc1cccc(Cc2n[nH]c3cc(O)c(C(=O)N4Cc5ccccc5C4)cc23)c1 |  | IC50 (Heat shock protein HSP90): 110 nM; IC50 [2]: 15 nM
CN(C)[C@H]1C[C@@]23CC[C@@]4(O2)C(=CC[C@@]2(C)[C@H]4CC(=O)[C@]2(O)c2ccc4ccncc4c2)C=C3[C@@H](O)[C@@H]1O | 150 | 
N#Cc1ccc2ncnc(NCCc3ccc4ccccc4c3)c2c1 |  | IC50 (CDK8/Cyclin C): 740 nM
Cc1cnccc1CC[C@@H](C)[C@H]1CC[C@@H]2[C@]1(C)CCC1=CC3=CC[C@@H](N(C)C)C[C@]34CC[C@@]12O4 | 350 | 
CN(C)[C@H]1C[C@@]23CC[C@@]4(O2)C(=CC[C@@]2(C)[C@H]4C[C@H](O)[C@@H]2c2ccc4ccncc4c2)C=C3[C@@H](O)[C@@H]1O | 1100 | 
COc1ccc(/C=N/c2ncc(-c3cc4ccccc4oc3=O)o2)cc1O |  | IC50 (HCT-116): 71800 nM
Cc1ccc(-n2nc(C(C)(C)C)cc2NC(N)=O)cc1 |  | Kd [3]: 3240 nM
CC1CN(C)CCC1CC[C@@H](C)[C@H]1CC[C@@H]2[C@]1(C)CCC1=CC3=CC[C@@H](N(C)C)C[C@]34CC[C@@]12O4 (stereo partly specified) | 450 | 
CN(C)[C@H]1C[C@@]23CC[C@@]4(O2)C(=CC[C@]2(C)[C@@H](c5ccc6ccncc6c5)C(=O)C[C@H]24)C=C3[C@@H](O)[C@@H]1O | 19 | 
